Measured values reported in patent publication US20240140986A1, “SYNTHETIC URSOLIC ACID DERIVATIVES AND METHODS OF USE THEREOF” (REATA PHARMACEUTICALS, INC., priority 2021, published 2024).
Where two headings read alike, the source gives them in different places.

How the values were obtained:
[1] = system: IFNγ-induced NO production in RAW 264.7 cells; assay: Nitric Oxide Suppression Assay (IFNγ-induced NO, Griess nitrite readout); type: cell-based, mouse; settings: for IC50: Mus musculus; for Avg NO IC50 Relative to RTA402 (fold): Table 2, ratio to RTA402
Protocol: Tissue Culture: RAW 264.7, a mouse macrophage cell line, was obtained from American Type Culture Collection (Manassas VA) and maintained in the log phase of growth in Roswell Park Memorial Institute Medium 1640 (RPMI 1640) supplemented with 10% heat inactivated fetal bovine serum and 1% penicillin-streptomycin. Cells were cultured and maintained in a humidified incubator at 37° C. under 5% C02. Cells were sub-cultured every 2-4 days. All cell culture supplies were obtained from Life Technologies (Grand Island, NY) and VWR (Radnor, PA).
Nitric Oxide Suppression Assay. RAW 264.7 cells were plated 1 day in advance of experimental treatments at a concentration of 30,000 cells per well onto Falcon-96 well clear bottom plates (Corning, NY) in a total volume of 200 μL per well using RPMI 1640 supplemented with 0.5% fetal bovine serum and 1% penicillin-streptomycin. The next day, cells were pretreated with compounds serially diluted from 1000×stocks. All compounds were dissolved in dimethyl sulfoxide (DMSO) usually at 10 mM stock solutions. Compounds were subsequently diluted in DMSO and RPMI 1640. Each well received a final concentration of 0.1% DMSO. Cells were pretreated for 2 hours and incubation at 37° C., followed by treatment with 20 ng/mL of interferon gamma (R&D Systems, Minneapolis, MN) per well for 24 hours. The next day, a nitrite standard was serially diluted from 100 μM to 1.6 μM in RPMI 1640. Afterwards, 50 μL of cell culture supernatant was transferred from each well into a new Falcon-96 well clear bottom plate. Nitrite was measured as surrogate for nitric oxide using Promega's Griess Detection Kit #G2930 (Madison, WI) which involves the addition of 50 μL of the provided sulfanilamide solution to each well of the transferred cell culture supernatant and standards, followed by a 10-minute incubation at room temperature. Next, 50 μL of the provided N-1-napthylethylenediamine dihydrochloride (NED) solution was added to the sulfanilamide reaction and incubated for 10 minutes at room temperature in the dark. Afterwards, air bubbles were removed using ethanol vapor and absorbance was measured using a Spectramax M2e plate reader with a wavelength set to 525 nm. Viability was assessed using WST-1 cell proliferation reagent from Roche (Basel, Switzerland). After media was removed for the Nitric Oxide suppression assay, 15 μL of WST-1 reagent was added to each well of cells. Plates were briefly mixed on an orbital shaker and the cells were incubated at 37° C. for 30-90 minutes. Absorbance was measured using a Spectramax M2e plate reader with wavelengths set to 440 nm and 700 nm.
For the ability of compounds to suppress the increase in nitric oxide release caused by interferon gamma, the absolute amount of nitrite that was produced in each well was extrapolated from the nitrite standards using a linear regression fit. All values were then normalized to the DMSO-interferon gamma treated wells and plotted as percent nitric oxide. IC50 values were calculated using Excel and/or GraphPad Prism (San Diego, CA).

[2] = system: Nrf2 / ARE-dependent luciferase in AREc32 reporter cell line; assay: AREc32 luciferase reporter activation (Nrf2 induction); type: cell-based, human; settings: for EC (2-fold): Homo sapiens, Arec32; for Relative Avg AREc32 EC2X Relative to RTA402 (fold): ratio to RTA402
Protocol: Effect on Ludferase Reporter Activation. Nrf2 is a transcription factor that binds to the antioxidant response element (ARE) sequence in the promoter regions of its target genes. AREc32 reporter cell line (derived from human breast carcinoma MCF7 cells) was obtained was from CXR Bioscience Limited (Dundee, UK) and cultured in DMEM (low glucose) supplemented with 10% FBS, 1% penicillin/streptomycin, and 0.8 mg/ml Geneticin (G418). This cell line is stably transfected with a luciferase reporter gene under the transcriptional control of eight copies of the rat GSTA2 ARE sequence (5′-GTGACAAAGCA-3′) (Wang et al., 2006). Expression of Firefly luciferase from this reporter plasmid is controlled by binding of Nrf2 to these ARE sequences. Measurement of ARE-dependent luciferase activity allows quantitative assessment of Nrf2 induction. AREc32 cell line has previously been used in studies characterizing different Nrf2 activators (Dinkova-Kostova & Wang, 2011; Roubalová et al., 2016; Roubalová et al, 2017; Wu et al, 2012).
The effect of several compounds disclosed herein on luciferase reporter activation was assessed in the AREc32 reporter cell line (see Table 10 and Table 11). This cell line is derived from human breast carcinoma MCF-7 cells and is stably transfected with a luciferase reporter gene under the transcriptional control of eight copies of the antioxidant response element from the rat Gsta2 gene, an Nrf2 target gene (Frilling et al., 1990). AREc32 cells were plated in black 96-well plates in 200 μL media at 20,000 cells per well. Twenty-four hours after plating, cells were treated with vehicle (DMSO) or test compounds at concentrations ranging from 0.03 to 1000 nM for nineteen hours. Media was removed and 100 μL of 1:1 mixture of the One-Glo Luciferase assay reagent and culture medium was added to each well. After incubation for 5 min at room temperature, the luminescence signal was measured on a PHERAstar plate reader. The EC2X value was determined using Excel and GraphPad Prism software. The fold increase in luminescence signal for cells treated with each concentration of compound relative to cells treated with vehicle was determined and a dose-response curve was generated. The dose-response curve was fit using nonlinear regression analysis and used to extrapolate the EC2X value. The EC2X value is defined as the concentration of test compound required to increase the luminescence signal 2-fold above levels in vehicle-treated samples.

[3] = RAW264.7, Table 2, RAW 264.7 cells, 2 h pretreatment, 20 ng/mL interferon gamma 24 h, read-out: Avg NO IC50 (nM) (Mean ± SD)
[4] = RAW264.7, Table 3, ursolic acid derivatives, read-out: Avg NO IC50 (nM) (Mean ± SD)
[5] = Table 2, concentration increasing luminescence 2-fold above vehicle, 19 h treatment, read-out: Avg AREc32 EC2X (nM) (Mean ± SD)
[6] = Table 3, ursolic acid derivatives, read-out: Avg ARE EC-2X (nM) (Mean ± SD)

Compound | IC50 [1, 3] [nM] | IC50 [1, 4] [nM] | Avg NO IC50 Relative to RTA402 (fold) [1] [fold] | IC50 ([1]; RAW264.7, Table 3, oleanolic acid derivative analogs, read-out: Avg NO IC50) [nM] | EC (2-fold) [2, 5] [nM] | EC (2-fold) [2, 6] [nM] | Relative Avg AREc32 EC2X Relative to RTA402 (fold) ([2]; Table 2) | EC (2-fold) ([2]; Table 3, oleanolic acid derivative analogs, read-out: Avg ARE EC-2X) [nM]
CNC(=O)CC[C@]12CC[C@@H](C)[C@H](C)[C@H]1[C@H]1C(=O)C=C3[C@@]4(C)C=C(C#N)C(=O)C(C)(C)[C@@H]4CC[C@@]3(C)[C@]1(C)CC2 [Compound T78] | 2.43 ± 0.95 | – | 0.683 ± 0.093 | – | 2.33 ± 0.78 | – | 0.194 ± 0.058 | –
C[C@@H]1[C@H]2[C@H]3C(=O)C=C4[C@@]5(C)C=C(C#N)C(=O)C(C)(C)[C@@H]5CC[C@@]4(C)[C@]3(C)CC[C@@]2(CN2C(=O)CCC2=O)CC[C@H]1C [Compound T75] | 3.23 ± 0.65 | – | 1.46 ± 0.46 | – | 2.47 ± 0.64 | – | 0.242 ± 0.070 | –
[2H]C([2H])([2H])C(=O)N(C)C[C@]12CC[C@@H](C)[C@H](C)[C@H]1[C@H]1C(=O)C=C3[C@@]4(C)C=C(C#N)C(=O)C(C)(C)[C@@H]4CC[C@@]3(C)[C@]1(C)CC2 [Compound T37] | 5.76 ± 1.38 | – | 2.08 ± 0.31 | – | 6.04 ± 2.15 | – | 0.486 ± 0.047 | –
C[C@@H]1[C@H]2[C@H]3C(=O)C=C4[C@@]5(C)C=C(C#N)C(=O)C(C)(C)[C@@H]5CC[C@@]4(C)[C@]3(C)CC[C@@]2(CN2CCCC2=O)CC[C@H]1C [Compound T15] | 4.2 ± 2.4 | 4.2 ± 2.4 | 1.99 ± 0.20 | – | 5.21 ± 1.11 | 5.21 ± 1.11 | 0.447 ± 0.085 | –
CC(=O)NC[C@]12CC[C@@H](C)[C@H](C)[C@H]1[C@H]1C(=O)C=C3[C@@]4(C)C=C(C#N)C(=O)C(C)(C)[C@@H]4CC[C@@]3(C)[C@]1(C)CC2 [Compound T22] | 3.58 ± 2.16 | – | 0.94 ± 0.14 | – | 2.99 ± 1.62 | – | 0.244 ± 0.080 | –
C[C@@H]1[C@H]2[C@H]3C(=O)C=C4[C@@]5(C)C=C(C#N)C(=O)C(C)(C)[C@@H]5CC[C@@]4(C)[C@]3(C)CC[C@@]2(C(=O)N2CCC2)CC[C@H]1C [Compound T70] | 19.6 ± 6.1 | – | 8.82 ± 3.07 | – | 21.6 ± 1.3 | – | 1.78 ± 0.34 | –
CC1(C)CC[C@]2(Cn3ccnc3)CC[C@]3(C)[C@H](C(=O)C=C4[C@@]5(C)C=C(C#N)C(=O)C(C)(C)[C@@H]5CC[C@]43C)[C@@H]2C1 [CC51, reference compound] | – | – | – | 3.9 | – | – | – | 18
C[C@@H]1[C@H]2[C@H]3C(=O)C=C4[C@@]5(C)C=C(C#N)C(=O)C(C)(C)[C@@H]5CC[C@@]4(C)[C@]3(C)CC[C@@]2(Cn2cnnn2)CC[C@H]1C [Compound T52] | 8.99 ± 1.84 | – | 3.35 ± 0.65 | – | 8.74 ± 0.51 | – | 0.654 ± 0.079 | –

More lines, main results first:

IC50 [1, 3] [nM] | IC50 [1, 4] [nM] | Avg NO IC50 Relative to RTA402 (fold) [1] [fold] | IC50 ([1]; RAW264.7, Table 3, oleanolic acid derivative analogs, read-out: Avg NO IC50) [nM] | Compound | EC (2-fold) [2, 5] [nM] | EC (2-fold) [2, 6] [nM] | Relative Avg AREc32 EC2X Relative to RTA402 (fold) ([2]; Table 2) | EC (2-fold) ([2]; Table 3, oleanolic acid derivative analogs, read-out: Avg ARE EC-2X) [nM]
2.08 ± 0.14 | 2.08 ± 0.14 | 1.45 ± 0.28 | – | C[C@@H]1[C@H]2[C@H]3C(=O)C=C4[C@@]5(C)C=C(C#N)C(=O)C(C)(C)[C@@H]5CC[C@@]4(C)[C@]3(C)CC[C@@]2(c2nc(CO)no2)CC[C@H]1C [Compound T10] | 2.4 ± 0.3 | 2.4 ± 0.3 | 0.193 ± 0.024 | –
5.12 ± 1.21 | – | 1.33 ± 0.30 | – | COC(=O)NC[C@]12CC[C@@H](C)[C@H](C)[C@H]1[C@H]1C(=O)C=C3[C@@]4(C)C=C(C#N)C(=O)C(C)(C)[C@@H]4CC[C@@]3(C)[C@]1(C)CC2 [Compound T30] | 3.29 ± 0.61 | – | 0.27 ± 0.06 | –
36.1 ± 13.8 | – | 20.20 ± 5.71 | – | C[C@@H]1[C@H]2[C@H]3C(=O)C=C4[C@@]5(C)C=C(C#N)C(=O)C(C)(C)[C@@H]5CC[C@@]4(C)[C@]3(C)CC[C@@]2(C(=O)NO)CC[C@H]1C [Compound T72] | 17.2 ± 7 | – | 1.71 ± 0.33 | –
1.81 ± 0.331 | – | 1.24 ± 0.13 | – | C[C@@H]1[C@H]2[C@H]3C(=O)C=C4[C@@]5(C)C=C(C#N)C(=O)C(C)(C)[C@@H]5CC[C@@]4(C)[C@]3(C)CC[C@@]2(c2nc(CCO)no2)CC[C@H]1C [Compound T5] | 2.4 ± 0.75 | – | 0.224 ± 0.196 | –
7.66 ± 1.52 | – | 3.67 ± 1.40 | – | COC(C)c1noc([C@]23CC[C@@H](C)[C@H](C)[C@H]2[C@H]2C(=O)C=C4[C@@]5(C)C=C(C#N)C(=O)C(C)(C)[C@@H]5CC[C@@]4(C)[C@]2(C)CC3)n1 (some centres unmarked) [Compound T6] | 11.8 ± 1.9 | – | 1.03 ± 0.01 | –
14.8 ± 2.9 | 14.8 ± 2.9 | 7.06 ± 0.83 | – | CCc1noc([C@]23CC[C@@H](C)[C@H](C)[C@H]2[C@H]2C(=O)C=C4[C@@]5(C)C=C(C#N)C(=O)C(C)(C)[C@@H]5CC[C@@]4(C)[C@]2(C)CC3)n1 [Compound T4] | 19.9 ± 0.2 | 19.9 ± 0.2 | 1.93 ± 0.23 | –
23.1 ± 6.6 | – | 7.02 ± 1.96 | – | CONC(=O)[C@]12CC[C@@H](C)[C@H](C)[C@H]1[C@H]1C(=O)C=C3[C@@]4(C)C=C(C#N)C(=O)C(C)(C)[C@@H]4CC[C@@]3(C)[C@]1(C)CC2 [Compound T73] | 7.93 ± 0.82 | – | 0.681 ± 0.159 | –
12.2 ± 3.5 | – | 3.79 ± 1.16 | – | C[C@@H]1[C@H]2[C@H]3C(=O)C=C4[C@@]5(C)C=C(C#N)C(=O)C(C)(C)[C@@H]5CC[C@@]4(C)[C@]3(C)CC[C@@]2(F)CC[C@H]1C [Compound T67] | 11.5 ± 1.6 | – | 0.984 ± 0.119 | –
